Source: US20110152343A1, “PROTEASE INHIBITORS AND BROAD-SPECTRUM ANTIVIRAL” (Functional Genetics, Inc., priority 2009, published 2011)

System: RSV
Assay: RSV infection, timing of administration (production of virus particles)

SMILES: N=C(N)c1ccc2oc(/C=C/c3nc4ccc(C(=N)N)cc4[nH]3)cc2c1 [NSC 369723]
- inhibition of the production of virus particles (pfu/ml) (administration by roughly 18 hours after infection with RSV): much reduced or lost
- inhibition of the production of virus particles (pfu/ml) (administration from about 6-12 hours after infection with RSV): moderately inhibited
